# Columns and labels:
# [1] = Sulforhodamine B (SRB) growth inhibition / growth arrest assay; type: cell-based; settings: activity range
# Experimental: A growth inhibition assay was also employed for the evaluation of candidate HSP90 inhibitors:
# Assessment of Cytotoxicity by Sulforhodamine B (SRB) Assay: Calculation of 50% Inhibitory Concentration (IC50).
# Day 1 • 1) Determine cell number by haemocytometer. • 2) Using an 8 channel multipipettor, add 160 μl of the cell suspension (3600 cells/well or 2×10^4 cells/ml) to each well of a 96-well microtitre plate. • 3) Incubate overnight at 37° C. in a CO2 incubator. Day 2 • 4) Stock solutions of drugs are prepared, and serial dilutions of each drug are performed in medium to give final concentrations in wells. • 5) Using a multipipettor, 40 μl of drug (at 5× final concentration) is added to quadruplicate wells. • 6) Control wells are at either side of the 96 well plates, where 40 μl of medium is added. • 7) Incubate plates in CO2 incubator for 4 days […]. […] Leave for 15 mins. • 12) Wash off unbound SRB stain with four washes of 1% acetic acid. • 13) Dry plates in incubator. • 14) Solubilise SRB using 100 μl of 10 mM Tris base and put plates on plate shaker for 5 mins. • 15) Determine absorbance at 540 nm using a plate reader. Calculate mean absorbance for quadruplicate wells and express as a percentage of value for control, untreated wells. • 16) Plot % absorbance values versus log drug concentration and determine the IC50.
# Human full-length Hsp90 = biological target: T1, Human full-length Hsp90 (Homo sapiens, UniProt P08238); assay: Fluorescence polarization assay (competitive binding to HSP90, probe RBT0045864-FAM); settings: fluorescence polarization assay, activity range; read-out: Hsp90 FP IC50
# T1 construct: E. coli expressed human full-length HSP90 protein, purified >95%; made in house; host or cells: E. coli
# How it was run: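 Competitive fluorescence polarization: test compound displaces FAM-labelled probe RBT0045864-FAM (200 nM working solution) from HSP90 after equilibration, and anisotropy change is measured. Compounds serially diluted; BSA-containing buffer; standard compound as positive control; Z′ from zero and positive controls.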
# T1 sequence (P08238 whole entry): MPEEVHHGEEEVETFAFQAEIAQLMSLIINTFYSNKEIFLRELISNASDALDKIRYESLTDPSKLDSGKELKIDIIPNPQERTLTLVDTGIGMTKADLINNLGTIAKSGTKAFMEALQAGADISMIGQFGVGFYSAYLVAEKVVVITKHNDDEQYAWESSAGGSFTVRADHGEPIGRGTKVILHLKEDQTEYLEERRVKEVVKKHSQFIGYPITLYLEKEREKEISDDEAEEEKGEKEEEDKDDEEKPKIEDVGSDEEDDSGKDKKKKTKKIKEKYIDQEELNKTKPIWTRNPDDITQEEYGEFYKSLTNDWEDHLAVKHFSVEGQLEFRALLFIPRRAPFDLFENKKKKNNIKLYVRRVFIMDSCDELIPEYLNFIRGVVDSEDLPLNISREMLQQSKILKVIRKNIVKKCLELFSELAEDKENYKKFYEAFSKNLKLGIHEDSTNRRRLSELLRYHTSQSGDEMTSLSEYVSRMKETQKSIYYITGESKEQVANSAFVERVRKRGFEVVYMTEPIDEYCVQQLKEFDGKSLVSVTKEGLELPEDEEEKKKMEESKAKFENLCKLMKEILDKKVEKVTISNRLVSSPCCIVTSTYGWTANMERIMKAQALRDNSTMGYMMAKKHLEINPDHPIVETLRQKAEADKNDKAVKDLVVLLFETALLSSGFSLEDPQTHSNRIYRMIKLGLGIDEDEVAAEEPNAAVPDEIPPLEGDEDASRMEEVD
compound,measurement,setting,value
"CCOC(=O)c1cc2c(-c3ccc(C(F)(F)F)cc3)nc(N)nc2s1 [Example 2, 2-Amino-4-(4-trifluoromethyl-phenyl)-thieno[2,3-d]pyrimidine-6-carboxylic acid ethyl ester]",IC50,[1],< 50 µM
same,IC50,Human full-length Hsp90,> 10 µM

# — patent US8642594B2, “Substituted thieno[2,3-d]pyrimidines as HSP90 inhibitors” (Vernalis (R&D) Limited, priority 2003, dated 2014)
